From US20240024403A1, “Compositions and Methods for Managing Weight” (Unigen, Inc., priority 2012, published 2024)

Assay: High fat diet induced obesity (DIO) mouse model
Type: in vivo, C57CL/6J mice
Conditions: for NSAH (sum): liver pathology; for Total Body Weight: DIO mice (Table 52); for Total Body Weight / Body Weight: in g (unit assumed)
Protocol: C57CL/6J mice aged 4-6 weeks (Korea Research Institute of Bioscience & Biotechnology, Ohchang, Korea) were housed in Polycarbonate cages (five mice per cage) in a room with a 12 hr:12 hr light-dark cycle and an ambient temperature of 24° C. All the mice were fed a commercial chow diet for 1 week after arrival in the animal facility. Mice were then divided into normal and obesity groups and fed with normal diet (ND) and high fat diets (HFD) respectively. The HFD group was divided into multiple treatment groups: a high fat diet vehicle group (HFD), an orlistat (purchased as OTC drug Alli®) positive control treatment group (ORI, 40 mg/kg of animal weight, 2 times/day) and optionally a sibutramine positive control treatment group (10 mg/kg, 1 time/day). The HFD contained 340 g of fat/kg of HFD (310 g lard plus 30 g soybean oil; Harlan Laboratories, USA). The HFD was formulated to provide 60% of the total energy generated by the diet from fat by replacing carbohydrate energy with lard and soybean oil, whereas the normal diet (ND) group was fed a diet providing only 18% of the total diet energy from fat(Harlan Laboratories, USA).
Body weight was measured once each week and feed intake was measured twice per week. At the end of the experimental period, following a 12 hr. fasting period, the animals were anesthetized with ether, and blood was drawn from the abdominal vein. Liver and kidney and adipose tissues (epididymal, retroperitoneal, perirenal adipose tissues) were removed from each animal, rinsed with physiological saline, and weighed. Serum concentrations of glucose, total cholesterol, triglycerides, and LDL-cholesterol were determined using automatic analyzer (INTEGRA 400, Roche, Germany). Statistical significance of test results was measured using the Student's t-test.

[1] = DIO mice blood biochemistry, SIB 10 mg/kg, ORI 40 mg/kg, Mutamba extract 32 (G1) 1000 mg/kg, mean
[2] = DIO mice blood biochemistry, SIB 10 mg/kg, ORI 40 mg/kg, Mutamba extract 33-2 G1 1000 mg/kg, mean
[3] = DIO mice liver pathology score, SIB 10 mg/kg, ORI 40 mg/kg, Mutamba extract 32 (G1) 1000 mg/kg, mean
[4] = DIO mice, SIB 10 mg/kg, ORI 40 mg/kg, Mutamba extract 32 (G1) 1000 mg/kg, mean
[5] = DIO mice, SIB 10 mg/kg, ORI 40 mg/kg, Mutamba extract 33-2 G1 1000 mg/kg, mean
[6] = DIO mice, combination (1:1) 2000 mg/kg twice a day, group mean
[7] = liver pathology score, mice fed a high fat diet, Mutamba fractions 250 mg/kg oral 2 times per day, mean
[8] = liver pathology score, mice fed a high fat diet, Mutamba fractions 250 mg/kg oral 2 times per day, mean (table printed twice)
[9] = mice fed a high fat diet, Mutamba fractions 250 mg/kg oral 2 times per day, mean
[10] = sibutramine 10 mg/kg, 1 time/day
[11] = sibutramine 10 mg/kg, 1 time/day, listed as Sibutramine
[12] = week 1, mice fed a high fat diet, Mutamba fractions 250 mg/kg oral 2 times per day, mean
[13] = week 2, mice fed a high fat diet, Mutamba fractions 250 mg/kg oral 2 times per day, mean
[14] = week 3, mice fed a high fat diet, Mutamba fractions 250 mg/kg oral 2 times per day, mean
[15] = week 4, mice fed a high fat diet, Mutamba fractions 250 mg/kg oral 2 times per day, mean
[16] = week 5, mice fed a high fat diet, Mutamba fractions 250 mg/kg oral 2 times per day, mean
[17] = week 6, mice fed a high fat diet, Mutamba fractions 250 mg/kg oral 2 times per day, mean
[18] = week 7, mice fed a high fat diet, Mutamba fractions 250 mg/kg oral 2 times per day, mean
[19] = week 8, mice fed a high fat diet, Mutamba fractions 250 mg/kg oral 2 times per day, mean

Work on `CC(C)CC(N(C)C)C1(c2ccc(Cl)cc2)CCC1` (stereo not shown) [SIB, sibutramine] yielded an ALT [1] of 37.00 U/L, an AST [1] of 65.95 U/L and an HDL-C [1] of 68.73 mg/dL. It also gave an LDL-C [1] of 6.18 mg/dL, a T-chol [1] of 155.75 mg/dL and a TG [1] of 49.75 mg/dL. It also gave an LDL-C [2] of 5.26 mg/dL, a T-chol [2] of 158.60 mg/dL and a TG [2] of 46.60 mg/dL. For the same compound, the “Hepatocellular ballooning (0-2)” value [3] was 0.25, the “Lobular Inflammation (0-3)” value [3] was 0.50 and the “Steatosis (0-3)” value [3] was 0.50. The “NASH (sum)” value (DIO mice liver pathology, sum of scores, SIB 10 mg/kg, ORI 40 mg/kg, Mutamba extract 32 (G1) 1000 mg/kg, mean) was 1.25, the “Weight Gain 2-week” value (DIO mice, 2-week, Compositions 1, 2 1300 mg/kg/day, 3, 9 1700 mg/kg/day, orlistat 40 mg/kg 2 times/day, sibutramine 10 mg/kg 1 time/day) was −1.40 and the “Average Feed Intake 2-week” value (DIO mice, 2-week, doses as in Example 76) was 2.87. For the same compound, the “Food Efficiency Ratio (FER) 2 weeks” value (DIO mice, 2 weeks, Mean, Weight Gain (g/day)/Feed Intake (g/day)) was −0.099, the “Weight Gain 7-week” value (DIO mice, 7-week, Compositions 1, 2 1300 mg/kg/day, 3, 9 1700 mg/kg/day, orlistat 40 mg/kg 2 times/day, sibutramine 10 mg/kg 1 time/day) was 6.12 and the “Average Feed Intake 7-week” value (DIO mice, 7-week, doses as in Example 76) was 2.67. For the same compound, the “Food Efficiency Ratio (FER) 7 weeks” value (DIO mice, 7 weeks, Mean, Weight Gain (g/day)/Feed Intake (g/day)) was 0.054, the “Food Efficiency Ratio (FER)” value (DIO mice, FER = body weight gain (g/day)/food intake (g/day), SIB 10 mg/kg, ORI 40 mg/kg, Mutamba extract 32 (G1) 1000 mg/kg, mean) was 0.008 and the “Food Efficiency Ratio (FER)” value (DIO mice, FER = body weight gain (g/day)/food intake (g/day), SIB 10 mg/kg, ORI 40 mg/kg, Mutamba extract 33-2 G1 1000 mg/kg, mean) was 0.043. For the same compound, the “Average Body Weight Gain” value [4] was 0.021 g/day, the “Average Food Intake” value [4] was 2.724 g/day and the “Body Weight Gain” value [5] was 0.114 g/day. The “Food Intake” value [5] was 2.624 g/day, the “FER (Food efficiency ratio)” value (DIO mice, combination (1:1) 2000 mg/kg twice a day, FER = body weight gain/food intake) was −0.014 and the “Food Intake” value [6] was 3.564 g/day. The “Weight Gain” value [6] was -0.051 g/day, the “Hepatocellular ballooning (0-2)” value [7] was 0.40 and the “Lobular Inflammation (0-3)” value [7] was 1.60. The “Steatosis (0-3)” value [7] was 1.20, the “Hepatocellular ballooning (0-2)” value [8] was 0.40 and the “Lobular Inflammation (0-3)” value [8] was 1.60. For the same compound, the “Steatosis (0-3)” value [8] was 1.20, the “NSAH (sum)” value (sum of scores, mice fed a high fat diet, Mutamba fractions 250 mg/kg oral 2 times per day, mean) was 3.20 and the “NSAH (sum)” value (sum of scores, mice fed a high fat diet, Mutamba fractions 250 mg/kg oral 2 times per day, mean (table printed twice)) was 3.20. The “FER (Food efficiency ratio)” value (mice fed a high fat diet, FER = body weight gain (g/day)/food intake (g/day), Mutamba fractions 250 mg/kg oral 2 times per day, mean) was 0.043, the Body Weight Gain [9] was 0.114 g/day and the Food Intake [9] was 2.624 g/day. For the same compound, the “blood biochemistry parameters vs HFD group” value [10] was “statistically significant decrease in LDL-cholesterol”, the “body weight gain vs HFD group” value [10] was “statistically significant decreases in body weight gain across all weeks of the study” and the “liver pathology (NASH score) vs HFD group” value [10] was “statistically significant decreases in Steatosis, Lobular inflammation, Hepatocellular ballooning and NASH score”. The “total body weight vs HFD group” value [10] was “statistically significant decreases in total body weight from week 1, 2, 3 and 7”, the “weight gain per day, food intake per day, food efficiency ratio (FER) vs HFD group” value [10] was “average body weight gain per day and food efficiency ratio (FER) endpoints were significantly lowered” and the “body weight gain vs HFD group” value [11] was “did not”. The “weight gain per day, food intake per day, food efficiency ratio (FER) vs HFD group” value [11] was “statistically significant reduction of average food intake after 7 weeks of treatment”, the “weight gain per day, food intake per day, food efficiency ratio (FER) vs HFD group” value (sibutramine 10 mg/kg, 1 time/day, listed as sibutramine) was “not statistically significant” and the “Total Body Weight” value (week 0, SIB 10 mg/kg) was 39.70. For the same compound, the “Body Weight” value (week 0, mice fed a high fat diet, Mutamba fractions 250 mg/kg oral 2 times per day, mean) was 38.41, the “Body Weight Gain” value (week 1, DIO mice, SIB 10 mg/kg, ORI 40 mg/kg, Mutamba extract 32 (G1) 1000 mg/kg/day oral, mean) was −5.46 and the “Body Weight Gain” value (week 1, DIO mice, SIB 10 mg/kg, ORI 40 mg/kg, Mutamba extract 33-2 G1 1000 mg/kg, mean) was −2.72. The “Weight Gain” value (week 1, DIO mice, combination (1:1) 2000 mg/kg twice a day, group mean) was −3.63, the “Weight Gain” value (week 1, DIO mice, combination (10:1) 1100 mg/kg twice a day, group mean) was −3.63 and the “Total Body Weight” value (week 1, SIB 10 mg/kg) was 34.24. For the same compound, the “Body Weight Gain” value [12] was −2.72, the “Body Weight” value [12] was 35.69 and the “Body Weight Gain” value (week 2, DIO mice, SIB 10 mg/kg, ORI 40 mg/kg, Mutamba extract 32 (G1) 1000 mg/kg/day oral, mean) was −4.84. For the same compound, the “Body Weight Gain” value (week 2, DIO mice, SIB 10 mg/kg, ORI 40 mg/kg, Mutamba extract 33-2 G1 1000 mg/kg, mean) was −2.39, the “Weight Gain” value (week 2, DIO mice, combination (1:1) 2000 mg/kg twice a day, group mean) was −5.37 and the “Weight Gain” value (week 2, DIO mice, combination (10:1) 1100 mg/kg twice a day, group mean) was −5.37. The “Total Body Weight” value (week 2, SIB 10 mg/kg) was 33.96, the “Body Weight Gain” value [13] was −2.39 and the “Body Weight” value [13] was 36.03. The “Body Weight Gain” value (week 3, DIO mice, SIB 10 mg/kg, ORI 40 mg/kg, Mutamba extract 32 (G1) 1000 mg/kg/day oral, mean) was −2.75, the “Body Weight Gain” value (week 3, DIO mice, SIB 10 mg/kg, ORI 40 mg/kg, Mutamba extract 33-2 G1 1000 mg/kg, mean) was −0.39 and the “Weight Gain” value (week 3, DIO mice, combination (1:1) 2000 mg/kg twice a day, group mean) was −4.69. The “Weight Gain” value (week 3, DIO mice, combination (10:1) 1100 mg/kg twice a day, group mean) was −4.69, the “Total Body Weight” value (week 3, SIB 10 mg/kg) was 36.05 and the “Body Weight Gain” value [14] was −0.39. For the same compound, the “Body Weight” value [14] was 38.02, the “Body Weight Gain” value (week 4, DIO mice, SIB 10 mg/kg, ORI 40 mg/kg, Mutamba extract 32 (G1) 1000 mg/kg/day oral, mean) was −2.17 and the “Body Weight Gain” value (week 4, DIO mice, SIB 10 mg/kg, ORI 40 mg/kg, Mutamba extract 33-2 G1 1000 mg/kg, mean) was 1.47. For the same compound, the “Weight Gain” value (week 4, DIO mice, combination (1:1) 2000 mg/kg twice a day, group mean) was −4.82, the “Weight Gain” value (week 4, DIO mice, combination (10:1) 1100 mg/kg twice a day, group mean) was −4.82 and the “Total Body Weight” value (week 4, SIB 10 mg/kg) was 36.64. The “Body Weight Gain” value [15] was 1.47, the “Body Weight” value [15] was 39.89 and the “Body Weight Gain” value (week 5, DIO mice, SIB 10 mg/kg, ORI 40 mg/kg, Mutamba extract 32 (G1) 1000 mg/kg/day oral, mean) was −1.38. The “Body Weight Gain” value (week 5, DIO mice, SIB 10 mg/kg, ORI 40 mg/kg, Mutamba extract 33-2 G1 1000 mg/kg, mean) was 2.54, the “Weight Gain” value (week 5, DIO mice, combination (1:1) 2000 mg/kg twice a day, group mean) was −4.25 and the “Weight Gain” value (week 5, DIO mice, combination (10:1) 1100 mg/kg twice a day, group mean) was −4.25. The “Total Body Weight” value (week 5, SIB 10 mg/kg) was 37.42, the “Body Weight Gain” value [16] was 2.54 and the “Body Weight” value [16] was 40.95. The “Body Weight Gain” value (week 6, DIO mice, SIB 10 mg/kg, ORI 40 mg/kg, Mutamba extract 32 (G1) 1000 mg/kg/day oral, mean) was −0.27, the “Body Weight Gain” value (week 6, DIO mice, SIB 10 mg/kg, ORI 40 mg/kg, Mutamba extract 33-2 G1 1000 mg/kg, mean) was 3.99 and the “Weight Gain” value (week 6, DIO mice, combination (1:1) 2000 mg/kg twice a day, group mean) was −3.90. For the same compound, the “Weight Gain” value (week 6, DIO mice, combination (10:1) 1100 mg/kg twice a day, group mean) was −3.90, the “Total Body Weight” value (week 6, SIB 10 mg/kg) was 38.54 and the “Body Weight Gain” value [17] was 3.99. For the same compound, the “Body Weight” value [17] was 42.40, the “Body Weight Gain” value (week 7, DIO mice, SIB 10 mg/kg, ORI 40 mg/kg, Mutamba extract 32 (G1) 1000 mg/kg/day oral, mean) was −0.06 and the “Body Weight Gain” value (week 7, DIO mice, SIB 10 mg/kg, ORI 40 mg/kg, Mutamba extract 33-2 G1 1000 mg/kg, mean) was 5.15. For the same compound, the “Weight Gain” value (week 7, DIO mice, combination (1:1) 2000 mg/kg twice a day, group mean) was −2.27, the “Weight Gain” value (week 7, DIO mice, combination (10:1) 1100 mg/kg twice a day, group mean) was −2.27 and the “Total Body Weight” value (week 7, SIB 10 mg/kg) was 38.74. The “Body Weight Gain” value [18] was 5.15, the “Body Weight” value [18] was 43.57 and the “Body Weight Gain” value (week 8, DIO mice, SIB 10 mg/kg, ORI 40 mg/kg, Mutamba extract 32 (G1) 1000 mg/kg/day oral, mean) was 1.15. The “Body Weight Gain” value (week 8, DIO mice, SIB 10 mg/kg, ORI 40 mg/kg, Mutamba extract 33-2 G1 1000 mg/kg, mean) was 6.27, the “Total Body Weight” value (week 8, SIB 10 mg/kg) was 39.95 and the “Body Weight Gain” value [19] was 6.27. The “Body Weight” value [19] was 44.69.
